Reference: ChEMBL document CHEMBL1144970, “Protective effects of steroid saponins from Paris polyphylla var. yunnanensis on ethanol- or indomethacin-induced gastric mucosal lesions in rats: structural requirement for activity and mode of action” (Bioorg Med Chem Lett, 2003)

Experiments:
Rattus norvegicus [1] = assay: Percent inhibition of gastric lesions (length = 92.8+/-8) induced by ethanol was measured, after administration of 2.5 mg/kg po in l-NAME-pretreated rats; type: functional; details: Stomach
Rattus norvegicus [2] = assay: Reduction in length (control value = 206.7+/-6.3) of gastric lesions induced by endomethacin was measured, after administration of 5 mg/kg po NEM-pretreated in rats; type: functional, Stomach
Rattus norvegicus [3] = assay: Reduction in length (control value = 70.4+/-2.3) of gastric lesions induced by endomethacin was measured, after administration of 2.5 mg/kg po in rats; type: functional, Stomach
Rattus norvegicus [4] = assay: Percent inhibition of gastric lesions (length = 139.3+/-11.2) induced by ethanol was measured, after administration of 2.5 mg/kg po in endomethacin pretreated rats; type: functional; details: Stomach
Rattus norvegicus [5] = assay: Percent inhibition of gastric lesions induced by ethanol was measured, after administration of 5 mg/kg po in rats; type: functional; details: Stomach
Rattus norvegicus [6] = assay: Reduction in length (control value = 190.1+/-9.3) of gastric lesions induced by endomethacin was measured, after administration of 5 mg/kg po L-NAME-pretreated in rats; type: functional, Stomach
Rattus norvegicus [7] = assay: Volume of the gastric juice (control value = 4.7+/-.3) of stomach content of pylorus ligated rats was measured(2.5 mg/kg po of the Compound was administered 1 hr before the pylorus ligation); type: functional
Rattus norvegicus [8] = assay: Reduction in length (control value = 190.1+/-9.3) of gastric lesions induced by endomethacin was measured, after administration of 2.5 mg/kg po L-NAME-pretreated in rats; type: functional, Stomach
Rattus norvegicus [9] = assay: Percent inhibition of gastric lesions induced by endomethacin was measured, after administration of 5 mg/kg po in rats; type: functional; details: Stomach
Rattus norvegicus [10] = assay: Percent inhibition of gastric lesions (length = 126.6+/-16.9) induced by ethanol was measured, after administration of 5 mg/kg po in endomethacin pretreated r rats; type: functional; details: Stomach
Rattus norvegicus [11] = assay: Acid output from the stomach (control value = 120.3+/-11.1) in pylorus ligated rats (5 mg/kg po of the Compound was administered 1 hr before the pylorus ligation); type: functional
Rattus norvegicus [12] = assay: Percent inhibition of gastric lesions (length = 50+/-9.9) induced by ethanol was measured, after administration of 5 mg/kg po in l-NAME-pretreated rats; type: functional; details: Stomach
Rattus norvegicus [13] = assay: pH of the gastric juice (control value = 1.39+/-0.02) of stomach content of pylorus ligated rats was measured (5 mg/kg po of the Compound was administered 1 hr before the pylorus ligation); type: ADME, organism-based; details: in vivo
Rattus norvegicus [14] = assay: Percent inhibition of gastric lesions induced by ethanol was measured, after administration of 2.5 mg/kg po in rats; type: functional; details: Stomach
Rattus norvegicus [15] = assay: Percent inhibition of gastric lesions induced by endomethacin was measured, after administration of 2.5 mg/kg po in rats; type: functional; details: Stomach
Rattus norvegicus [16] = assay: Reduction in length (control value = 141+/-14.3) of gastric lesions induced by ethanol was measured, after administration of 2.5 mg/kg po in rats; type: functional, Stomach
Rattus norvegicus [17] = assay: Percent inhibition of gastric lesions (length = 110+/-8.4) induced by ethanol was measured, after administration of 2.5 mg/kg po in NEM-pretreated rats; type: functional; details: Stomach
Rattus norvegicus [18] = assay: Acid output from the stomach (control value = 120.3+/-11.1) in pylorus ligated rats (2.5 mg/kg po of the Compound was administered 1 hr before the pylorus ligation); type: functional
Rattus norvegicus [19] = assay: Reduction in length (control value = 152.9+/-9.7) of gastric lesions induced by ethanol was measured, after administration of 2.5 mg/kg po in Indomethacin-pretreated rats; type: functional, Stomach
Rattus norvegicus [20] = assay: Percent inhibition of gastric lesions induced by endomethacin was measured, after administration of 1.25 mg/kg po in rats; type: functional; details: Stomach
Rattus norvegicus [21] = assay: Reduction in length (control value = 70.4+/-2.3) of gastric lesions induced by endomethacin was measured, after administration of 5 mg/kg po in rats; type: functional, Stomach
Rattus norvegicus [22] = assay: Reduction in length (control value = 141+/-14.3) of gastric lesions induced by ethanol was measured, after administration of 5 mg/kg po in rats; type: functional, Stomach
Rattus norvegicus [23] = assay: Percent inhibition of gastric lesions induced by ethanol was measured, after administration of 1.25 mg/kg po in rats; type: functional; details: Stomach
Rattus norvegicus [24] = assay: Percent inhibition of gastric lesions induced by ethanol was measured, after administration of 5 mg/kg po in l-NAME-pretreated rats; type: functional; details: Stomach
Rattus norvegicus [25] = assay: Reduction in length (control value = 141+/-14.3) of gastric lesions induced by ethanol was measured, after administration of 1.25 mg/kg po in rats; type: functional, Stomach
Rattus norvegicus [26] = assay: Reduction in length (control value = 152.9+/-9.7) of gastric lesions induced by ethanol was measured, after administration of 5 mg/kg po in Indomethacin-pretreated rats; type: functional, Stomach
Rattus norvegicus [27] = assay: Percent inhibition of gastric lesions (length = 24.9 +/-3.6) induced by ethanol was measured, after administration of 5 mg/kg po in rats; type: functional; details: Stomach
Rattus norvegicus [28] = assay: Reduction in length (control value = 70.4+/-2.3) of gastric lesions induced by endomethacin was measured, after administration of 1.25 mg/kg po in rats; type: functional, Stomach
Rattus norvegicus [29] = assay: Percent inhibition of gastric lesions (length = 34.3+/-5.5) induced by ethanol was measured, after administration of 2.5 mg/kg po in rats; type: functional; details: Stomach
Rattus norvegicus [30] = assay: Reduction in length (control value = 206.7+/-6.3) of gastric lesions induced by endomethacin was measured, after administration of 2.5 mg/kg po NEM-pretreated in rats; type: functional, Stomach
Rattus norvegicus [31] = assay: pH of the gastric juice (control value = 1.39+/-0.02) of stomach content of pylorus ligated rats was measured (2.5 mg/kg po of the Compound was administered 1 hr before the pylorus ligation); type: ADME, organism-based; details: in vivo
Rattus norvegicus [32] = assay: Volume of the gastric juice (control value = 4.7+/-.3) of stomach content of pylorus ligated rats was measured (5 mg/kg po of the Compound was administered 1 hr before the pylorus ligation); type: functional

Compound: CC1CC[C@@]2(OC1)OC1C[C@H]3[C@@H]4CC=C5C[C@@H](O[C@@H]6O[C@H](CO)[C@@H](O[C@@H]7O[C@@H](CO)[C@H](O)[C@H]7O)[C@H](O)[C@H]6O[C@@H]6O[C@@H](C)[C@H](O)[C@@H](O)[C@H]6O)CC[C@]5(C)[C@H]4CC[C@]3(C)[C@@]1(O)[C@@H]2C (some centres not stated)
- inhibition in vivo at 2.5 mg/kg (Rattus norvegicus [1]): 51.2%
- Length (Rattus norvegicus [2]): 63 mm
- Length (Rattus norvegicus [3]): 30.3 mm
- inhibition in vivo at 2.5 mg/kg (Rattus norvegicus [4]): 8.9%
- inhibition in vivo at 5 mg/kg (Rattus norvegicus [5]): 93.7%
- Length (Rattus norvegicus [6]): 50 mm
- Volume (Rattus norvegicus [7]): 4.1 ml 4hr-1
- Length (Rattus norvegicus [8]): 92.8 mm
- inhibition in vivo at 5 mg/kg (Rattus norvegicus [9]): 70.2%
- inhibition in vivo at 5 mg/kg (Rattus norvegicus [10]): 17.2%
- Acid output (Rattus norvegicus [11]): 71.8 u equiv hr-1
- inhibition in vivo at 5 mg/kg (Rattus norvegicus [12]): 73.7%
- pH (Rattus norvegicus [13]): 1.41
- inhibition in vivo at 2.5 mg/kg (Rattus norvegicus [14]): 82.9%
- inhibition in vivo at 2.5 mg/kg (Rattus norvegicus [15]): 57%
- Length (Rattus norvegicus [16]): 24.1 mm
- inhibition in vivo at 2.5 mg/kg (Rattus norvegicus [17]): 46.8%
- Acid output (Rattus norvegicus [18]): 98.5 u equiv hr-1
- Length (Rattus norvegicus [19]): 139 mm
- inhibition in vivo at 1.25 mg/kg (Rattus norvegicus [20]): 50.4%
- Length (Rattus norvegicus [21]): 21 mm
- Length (Rattus norvegicus [22]): 8.9 mm
- inhibition in vivo at 1.25 mg/kg (Rattus norvegicus [23]): 48.5%
- inhibition in vivo at 5 mg/kg (Rattus norvegicus [24]): 69.5%
- Length (Rattus norvegicus [25]): 72.6 mm
- Length (Rattus norvegicus [26]): 127 mm
- inhibition in vivo at 5 mg/kg (Rattus norvegicus [27]): 81.7%
- Length (Rattus norvegicus [28]): 34.9 mm
- inhibition in vivo at 2.5 mg/kg (Rattus norvegicus [29]): 74.8%
- Length (Rattus norvegicus [30]): 110 mm
- pH (Rattus norvegicus [31]): 1.41
- Volume (Rattus norvegicus [32]): 3.3 ml 4hr-1
